# Tests used:
# Type in all cases: cell-based, human
# HOTAIR = test: siRNA-mediated knockdown of HOTAIR in HRECs, RT-qPCR; settings: for reduction of HOTAIR RNA levels: HG-cultured HRECs, 48 hours, compared to SCR HG controls; for transcript levels of VEGF-A, ET-1 and ANGPTL4: custom double-stranded siRNAs, HRECs, HG
# Procedure: Human retinal microvascular endothelial cells (HRECs; Cell Systems, Kirkland, Wash., USA; catalog number ACBRI 181), mouse retinal microvascular endothelial cells (MRECs; Applied Biological Materials Inc., Richmond, BC, CAN), and primary lung endothelial cells (MLECs) from C57BL/6J mice were cultured in endothelial basal media-2 (EBM-2, Lonza, Walkersville, Md., USA) containing endothelial growth media-2 (EGM-2) SingleQuots (Lonza). All cells were grown in 75 cm^2 culture flasks and maintained in a humidified incubator containing 5% CO2 at 37° C. As described previously (22,55,56), in order to reduce variability for experimentation, cells were used between passages three and six and the cellular densities were determined accordingly based on the type of culture plates used for each experiment. Generally, once 80% confluence was obtained post-seeding, ECs were cultured in serum and growth factor-free medium overnight before exposure to different D-glucose levels (final glucose concentrations of 5 mmol/L, mimicking normoglycemia [NG], and 25 mmol/L, mimicking hyperglycemia [HG]) for various durations; the selected glucose levels are based on a large volume of previous experiments (22,27,33,55-57). All in vitro or ex vivo experiments were independently repeated at least three times and performed with six replicates, unless specified.
# HRECs were transfected using scrambled siRNAs (ID number: AM4635 [SCR], Thermo Fisher Scientific) or pre-designed siRNAs targeting human HOTAIR (ID: n272221 [si1-HOTAIR], Thermo Fisher Scientific; n272222 [si2-HOTAIR], Thermo Fisher Scientific; R-187951-00-0005 [SMARTpool siHOTAIR], Horizon Discovery; Table 6, top panel), EZH2 (ID: M-004218-03-0005 [SMARTpool si-EZH2], Horizon Discovery), CTCF (ID: M-020165-02-0005 [SMARTpool siCTCF], Horizon Discovery), DNMT1 (ID: s4216 [siDNMT1], Thermo Fisher Scientific) or mouse Hotair (ID: R-173526-00-0005 [SMARTpool siHOTAIR], Horizon Discovery, Table 6, bottom panel) using Lipofectamine 2000 (Invitrogen, Burlington, ON, Canada) and Opti-MEM reduced serum media (Thermo Fisher Scientific). As documented previously by us (22,27,33,55-57), cells were transfected with 100 nM of each siRNA for 3-4 hours and subsequently recovered in complete EBM-2 overnight. Cells were then serum starved the following morning, between 18-24 hours, and then incubated with specific glucose concentrations (5 mmol/L or 25 mmol/L) for 48 hours. Knockdown of the target genes were then confirmed using RT-qPCR.
# (§1) As extensively described by us (22,27,33,55-57), total RNA was extracted using the TRIzol reagent (Invitrogen). Once total RNA was obtained, a spectrophotometer (260 nm; Gene Quant, Pharmacia Biotech, USA) was used to quantify RNA concentrations in which 1-2 μg of total RNA was reverse transcribed to complementary DNA (cDNA) using a high-capacity cDNA reverse-transcription kit (Applied Biosystems/Thermo Fisher Scientific). cDNA was then amplified in the LightCycler 96 System (Roche Diagnostics, Laval, QC, CAN) using the SYBR-green master mix (Takara Bio, Mountain View, Calif., USA) and specific primers for the genes of interest (Sigma; Tables 1-2). RT-qPCR results were analyzed using the LightCycler 96 SW 1.1 software (Roche) and expression levels were calculated by the relative standard curve method using β-actin as an internal control for sample normalization.
# HRECs [1] = test: Trypan blue exclusion assay; settings: 2-DG-treated HRECs, data not shown
# HRECs [2] = test: 2-DG pre-treatment of HRECs, RT-qPCR
# Procedure: (§2) Following the concentrations documented in previous studies, DZNep (Cayman Chemical, Ann Arbor, Mich., USA; 5 μM), 5-aza-dC (Sigma, St. Louis, USA; 5 μM) or 2-DG (Sigma; 0.6 mM and 5 mM) pre-treatment was applied to HRECs for 1 hour prior to the addition of D-glucose (22,27,55,58). DZNep, 5-aza-dC or 2-DG-treated HRECs and their respective controls were collected at 48 hours for further analyses.
# as §1
# HRECs [3] = test: DZNep pre-treatment of HRECs, RT-qPCR
# Procedure: as §2, §1
# HRECs [4] = test: 5-aza-dC pre-treatment of HRECs, RT-qPCR
# Procedure: as §2, §1
# [5] = DZNep 5 μM plus HG, 48 hours, compared to SCR HG cells
# [6] = 5-aza-dC 5 μM, HRECs, compared to HG controls
compound,measurement,setting,value
"siHOTAIR SB1: custom 21-nt duplex siRNA; sense CCAAAGAGUCUGAUGUUUACA, antisense UAAACAUCAGACUCUUUGGGG; HOTAIR target position 457-479 (RNA, backbone not given here) [custom 21-nt duplex siRNA; HOTAIR target position 457-479]",reduction of HOTAIR RNA levels,HOTAIR,~67%
same,"transcript levels of VEGF-A, ET-1 and ANGPTL4",HOTAIR,greatest reductions
"O=CC[C@@H](O)[C@H](O)[C@H](O)CO [2-DG, 2-deoxy-D-glucose]",viability,HRECs [1],45-55%
same,HOXD3 and HOXD10 expressions,"HRECs [2]; 5 mM 2-DG, HRECs cultured with HG, compared to HG controls",significantly upregulated
same,PARP1 and P300 expressions,"HRECs [2]; 5 mM 2-DG, HRECs, HG",did not induce significant reductions
same,expressions of DNMT3A and DNMT3B,"HRECs [2]; 5 mM of 2-DG, HRECs, HG",no differences were observed
same,"expressions of EZH2, SUZ12, EED and DNMT1","HRECs [2]; 5 mM of 2-DG, HRECs, HG",significant reductions
same,"HG-induced expressions of HOTAIR, VEGF-A, ET-1, ANGPTL4, MCP-1, IL-1β, CTCF and Cytochrome B","HRECs [2]; 2-DG 0.6 or 5 mM, HRECs, HG 48 hours",significantly blocked
"siHOTAIR SB3: custom 21-nt duplex siRNA; sense CUCUAUAAUAUGCUUAUAUUA, antisense AUAUAAGCAUAUUAUAGAGUU; HOTAIR target position 1700-1722 (RNA, backbone not given here) [custom 21-nt duplex siRNA; HOTAIR target position 1700-1722]",reduction of HOTAIR RNA levels,HOTAIR,~57%
"siHOTAIR SB2: custom 21-nt duplex siRNA; sense CAUAAACAAUAUAUCUGUUGG, antisense AACAGAUAUAUUGUUUAUGAG; HOTAIR target position 1156-1178 (RNA, backbone not given here) [custom 21-nt duplex siRNA; HOTAIR target position 1156-1178]",reduction of HOTAIR RNA levels,HOTAIR,~41%
same,"transcript levels of VEGF-A, ET-1 and ANGPTL4",HOTAIR,greatest reductions
"Nc1nccc2c1ncn2[C@@H]1C=C(CO)[C@@H](O)[C@H]1O [DZNep, 3-Deazaneplanocin A]","HOTAIR, VEGF-A, ANGPTL4, CTCF, PARP1, P300 and Cytochrome B transcripts","HRECs [3]; DZNep 5 μM and HG, compared to SCR HG controls",statistically significant reductions
same,reduction of EED transcripts,HRECs [3]; [5],~61%
same,reduction of EZH2 transcripts,HRECs [3]; [5],~72%
same,reduction of SUZ12 transcripts,HRECs [3]; [5],~48%
same,"ET-1, MCP-1, IL-1β, HOXD3 and HOXD10 transcripts",HRECs [3]; DZNep 5 μM pre-treatment plus HG culture,significantly augmented
same,HOTAIR expressions and its downstream targets,HRECs [3]; summary statement in Example 3,can reduce
"Nc1ncn([C@H]2C[C@H](O)[C@@H](CO)O2)c(=O)n1 [5-aza-dC, 5-Aza-2′-deoxycytidine]",reduction of DNMT3A RNA levels,HRECs [4]; [6],~58%
same,reduction of DNMT3B RNA levels,HRECs [4]; [6],~69%
same,"ANGPTL4, P300 and PARP1 expressions","HRECs [4]; 5-aza-dC-treated HRECs, HG",no significant differences
same,"HOTAIR, ET-1, CTCF, Cytochrome B, MCP-1, IL-1β, HOXD3 and HOXD10 transcripts","HRECs [4]; 5-aza-dC-treated HRECs, HG",significant elevations
same,glucose-induced increases in VEGF-A RNA expressions,"HRECs [4]; 5-aza-dC-treated HRECs, HG",significantly prevented
same,HOTAIR expressions and its downstream targets,HRECs [4]; summary statement in Example 3,can reduce
"siHOTAIR SB4: custom 21-nt duplex siRNA; sense GUGUAUAUAUAAUAAUGUAUU, antisense UACAUUAUUAUAUAUACACAA; HOTAIR target position 2160-2182 (RNA, backbone not given here) [custom 21-nt duplex siRNA; HOTAIR target position 2160-2182]",reduction of HOTAIR RNA levels,HOTAIR,~32%

# From patent publication US20230250478A1, “DIAGNOSIS AND TREATMENT OF CHRONIC DIABETIC COMPLICATIONS USING LONG NONCODING RNAS AS TARGETS” (THE UNIVERSITY OF WESTERN ONTARIO, priority 2020, published 2023)
